The source of these data is paper PMC9090415, “Discovery of small molecule inhibitors of Plasmodium falciparum apicoplast DNA polymerase” (Journal of Enzyme Inhibition and Medicinal Chemistry, 2022).

In the assay the target is T1, bacteriophage T4 DNA polymerase (Enterobacteria phage T4, UniProt P04415).
T1 construct: made in house
T1 sequence (P04415 1-898): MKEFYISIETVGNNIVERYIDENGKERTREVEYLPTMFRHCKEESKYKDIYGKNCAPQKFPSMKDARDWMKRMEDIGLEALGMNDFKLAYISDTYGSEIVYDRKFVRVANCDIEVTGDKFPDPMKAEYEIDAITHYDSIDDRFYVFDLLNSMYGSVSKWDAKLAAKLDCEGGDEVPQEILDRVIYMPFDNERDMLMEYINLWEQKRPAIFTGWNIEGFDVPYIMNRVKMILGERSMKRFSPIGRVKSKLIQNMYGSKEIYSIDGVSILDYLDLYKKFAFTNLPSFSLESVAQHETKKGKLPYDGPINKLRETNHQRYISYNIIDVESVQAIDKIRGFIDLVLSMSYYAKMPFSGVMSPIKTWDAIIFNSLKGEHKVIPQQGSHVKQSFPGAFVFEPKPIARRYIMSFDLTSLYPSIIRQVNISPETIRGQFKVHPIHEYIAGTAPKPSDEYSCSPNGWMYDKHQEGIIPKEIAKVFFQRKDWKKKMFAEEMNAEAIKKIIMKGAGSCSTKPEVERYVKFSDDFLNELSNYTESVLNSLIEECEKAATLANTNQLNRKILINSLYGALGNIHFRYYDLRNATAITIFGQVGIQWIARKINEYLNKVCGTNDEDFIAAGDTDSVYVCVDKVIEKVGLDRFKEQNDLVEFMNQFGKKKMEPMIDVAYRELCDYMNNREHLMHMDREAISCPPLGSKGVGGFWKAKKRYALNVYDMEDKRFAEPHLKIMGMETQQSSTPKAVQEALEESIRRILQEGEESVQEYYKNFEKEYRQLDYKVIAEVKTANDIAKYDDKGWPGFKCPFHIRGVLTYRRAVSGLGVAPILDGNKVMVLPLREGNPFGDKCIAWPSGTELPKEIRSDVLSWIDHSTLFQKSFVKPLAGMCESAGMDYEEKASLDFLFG
In words: Counter-screen against bacteriophage T4 DNA polymerase. Format: biochemical. Conditions: for % inhibition T4 10' 2.5 / % inhibition T4 10' 5 / % inhibition T4 10' 10 / % inhibition T4 10' 20 / % inhibition T4 10' 40 / % inhibition T4 10' 80: read at 10'. The gist of the method:
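IC50 values come from dose-response testing of each compound against T4 DNA polymerase. This B-family polymerase was purified in-house and used as the counter-screen.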
On the technique in general: Counterscreens check selectivity or assay interference.

Structures are written as SMILES.

As to `Cc1ccc(C)n1-c1ccc(C(=O)NNC(=O)c2ccc3nccnc3c2)cc1` [Molecule 53, O=C(c1ccc(cc1)n1c(C)ccc1C)NNC(=O)c1ccc2c(c1)nccn2], the “% inhibition T4 10'” value (DRC-2, concentration 2.5) came to 15%; the “% inhibition T4 10'” value (DRC-2, concentration 5) is 24%; the “% inhibition T4 10'” value (DRC-2, concentration 10) stood at 29%; the “% inhibition T4 10'” value (DRC-2, concentration 20) is 31%; the “% inhibition T4 10'” value (DRC-2, concentration 40) worked out at 29%; the “% inhibition T4 10'” value (DRC-2, concentration 80) is 38%. In addition, the “% inhibition T4 40'” value (DRC-2, concentration 2.5) was determined as 15%; the “% inhibition T4 40'” value (DRC-2, concentration 5) is 24%; the “% inhibition T4 40'” value (DRC-2, concentration 10) was found to be 29%; the “% inhibition T4 40'” value (DRC-2, concentration 20) was 31%; the “% inhibition T4 40'” value (DRC-2, concentration 40) is listed as 29%; the “% inhibition T4 40'” value (DRC-2, concentration 80) was determined as 38%. In addition, the “% inhibition T4 90'” value stood at 22% (DRC-2, concentration 5); 29% (DRC-2, concentration 20); 29% (DRC-2, concentration 40). The “% inhibition T4 180'” value reads like this: (DRC-2, concentration 10) 22%; (DRC-2, concentration 20) 24%.

As to `Cc1ccc(-n2nnc(C(=O)O)c2-c2ccccn2)c(F)c1` [Molecule 54, Cc1ccc(c(c1)F)n1nnc(c1c1ccccn1)C(=O)O], the “% inhibition T4 10'” value runs as follows: (DRC-2, concentration 2.5) 18%; (DRC-2, concentration 5) 23%; (DRC-2, concentration 10) 30%; (DRC-2, concentration 40) 27%; (DRC-2, concentration 80) 24%. Besides, the “% inhibition T4 40'” value is 18% (DRC-2, concentration 2.5); 23% (DRC-2, concentration 5); 30% (DRC-2, concentration 10); 27% (DRC-2, concentration 40); 24% (DRC-2, concentration 80). For the same compound, the “% inhibition T4 90'” value is, setting by setting: (DRC-2, concentration 2.5) 17%; (DRC-2, concentration 10) 27%; (DRC-2, concentration 20) 22%; (DRC-2, concentration 40) 23%; (DRC-2, concentration 80) 22%. The “% inhibition T4 180'” value is, setting by setting: (DRC-2, concentration 10) 22%; (DRC-2, concentration 20) 17%; (DRC-2, concentration 40) 20%; (DRC-2, concentration 80) 20%.

Turning to `COc1ccc(CNC(=O)Cn2nc3c(c2NC(=O)Cc2cccs2)CSC3)cc1` [Molecule 55, COc1ccc(cc1)CNC(=O)Cn1nc2c(c1NC(=O)Cc1cccs1)CSC2], the “% inhibition T4 10'” value (DRC-2, concentration 5) was found to be 18%; the “% inhibition T4 10'” value (DRC-2, concentration 10) is 26%; the “% inhibition T4 10'” value (DRC-2, concentration 20) was 26%. The “% inhibition T4 40'” value is listed as 26% (DRC-2, concentration 10); 28% (DRC-2, concentration 20); 38% (DRC-2, concentration 80). Also, the “% inhibition T4 90'” value is, setting by setting: (DRC-2, concentration 20) 26%; (DRC-2, concentration 80) 38%. In addition, the “% inhibition T4 180'” value (DRC-2, concentration 10) is on record as 18% and the “% inhibition T4 180'” value (DRC-2, concentration 40) is 28%.

As for `Cc1ccc(N2CCC(NC(=O)Cc3cccs3)C2=O)cc1C` (stereo not shown) [Molecule 57, O=C(NC1CCN(C1=O)c1ccc(c(c1)C)C)Cc1cccs1], the “% inhibition T4 10' 2.5” value is -2.9635% (DRC-1, concentration 2.5) and 14% (DRC-2, concentration 2.5). Further, the “% inhibition T4 10' 5” value (DRC-1, concentration 5) was found to be 6.066% and the “% inhibition T4 10' 5” value (DRC-2, concentration 5) is on record as 12%. The “% inhibition T4 10' 10” value worked out at 19.8361% (DRC-1, concentration 10) and 20% (DRC-2, concentration 10). In addition, the “% inhibition T4 10' 20” value turned out to be 23.1597% (DRC-1, concentration 20) and 23% (DRC-2, concentration 20). The “% inhibition T4 10' 40” value by setting is: (DRC-1, concentration 40) 29.7521%; (DRC-2, concentration 40) 25%. The “% inhibition T4 10' 80” value came to 29.7097% (DRC-1, concentration 80) and 26% (DRC-2, concentration 80). For the same compound, the “% inhibition T4 70' 2.5” value (DRC-1, read at 70', concentration 2.5) is on record as -3.783%. Moreover, the “% inhibition T4 70' 5” value (DRC-1, read at 70', concentration 5) was found to be 0.9049%. The “% inhibition T4 70' 10” value (DRC-1, read at 70', concentration 10) came out at 15.0423%. The “% inhibition T4 70' 20” value (DRC-1, read at 70', concentration 20) is 17.1422%. Where the note is “DRC-1, read at 70', concentration 40”, the “% inhibition T4 70' 40” value stood at 24.1448%. Besides, for the setting “DRC-1, read at 70', concentration 80”, the “% inhibition T4 70' 80” value is listed as 21.6253%. Besides, the “% inhibition T4 130' 2.5” value (DRC-1, read at 130', concentration 2.5) is -5.326%. For the same compound, the “% inhibition T4 130' 5” value (DRC-1, read at 130', concentration 5) is reported as -0.359%. The “% inhibition T4 130' 10” value (DRC-1, read at 130', concentration 10) came out at 12.5508%. For the same compound, the “% inhibition T4 130' 20” value (DRC-1, read at 130', concentration 20) came to 13.7416%. Further, the “% inhibition T4 130' 40” value (DRC-1, read at 130', concentration 40) turned out to be 21.2189%. Also, for the setting “DRC-1, read at 130', concentration 80”, the “% inhibition T4 130' 80” value was found to be 19.4508%. Moreover, the “% inhibition T4 40' 2.5” value (DRC-2, read at 40', concentration 2.5) is listed as 13%. Moreover, the “% inhibition T4 40' 5” value (DRC-2, read at 40', concentration 5) is 12%. Moreover, the “% inhibition T4 40' 10” value (DRC-2, read at 40', concentration 10) was 20%. Also, the “% inhibition T4 40' 20” value (DRC-2, read at 40', concentration 20) was 27%. For the same compound, where the note is “DRC-2, read at 40', concentration 40”, the “% inhibition T4 40' 40” value worked out at 30%. Under “DRC-2, read at 40', concentration 80”, the “% inhibition T4 40' 80” value was 35%. Also, the “% inhibition T4 90' 2.5” value (DRC-2, read at 90', concentration 2.5) was 13%. The “% inhibition T4 90' 5” value (DRC-2, read at 90', concentration 5) turned out to be 11%. The “% inhibition T4 90' 10” value (DRC-2, read at 90', concentration 10) was 20%. Further, where the note is “DRC-2, read at 90', concentration 20”, the “% inhibition T4 90' 20” value was 26%. Moreover, where the note is “DRC-2, read at 90', concentration 40”, the “% inhibition T4 90' 40” value was found to be 29%. Besides, under “DRC-2, read at 90', concentration 80”, the “% inhibition T4 90' 80” value was determined as 37%. The “% inhibition T4 180' 2.5” value (DRC-2, read at 180', concentration 2.5) is 11%. In addition, the “% inhibition T4 180' 5” value (DRC-2, read at 180', concentration 5) is reported as 10%. Further, the “% inhibition T4 180' 10” value (DRC-2, read at 180', concentration 10) was found to be 18%. The “% inhibition T4 180' 20” value (DRC-2, read at 180', concentration 20) is 25%. Further, where the note is “DRC-2, read at 180', concentration 40”, the “% inhibition T4 180' 40” value is on record as 28%. The “% inhibition T4 180' 80” value (DRC-2, read at 180', concentration 80) worked out at 37%.
